Like-named read-outs stand apart in the source and are kept apart here.

For series [1], the system named is E. coli SSO. The series is described as follows: T-RT retention of sfGFP mRNA extracted from SSO in vivo translation experiments. Format: cell-based. The arrangement: unit of the concentration uncertain. The note with it: for T-RT retention: mRNA sfGFP(GXT), n = 3. On the procedure:
(§1) Reverse transcription. The reverse transcription reactions were conducted according to the manufacturer's instructions of each reverse transcriptase with the following modifications. In all reverse transcription reactions, 1 μg mRNA or 20 ng tRNA, 0.5 mM dNTP and 0.2 mM dNaMTP or dTPT3TP per 20 μL reaction were used unless stated otherwise. For SuperScript III (18080044, ThermoFisher), reactions were incubated at 55° C. for 45 min, inactivated at 70° C. for 15 min, followed by RNase H (M0297S, New England Biolabs, (NEB)) and RNase A (R1253, ThermoFisher) digestion. For SuperScript IV (18090010, ThermoFisher), reactions were incubated at 55° C. for 20 min, inactivated at 80° C. for 10 min, followed by RNase H, RNase A, and Proteinase K (P8107S, New England Biolabs, (NEB)) digestion. For AMV reverse transcriptase (M0277S, New England Biolabs, (NEB)), reactions were incubated at 42° C. for 60 min, inactivated at 80° C. for 5 min, followed by RNase H and RNase A digestion. After digestion, 10 μL of each reaction mixture was denatured with RNA loading dye (B0363S, New England Biolabs, (NEB)) and subjected to 10% denaturing polyacrylamide gel electrophoresis with 8 M urea (CAS 57-13-6, Sigma Aldrich) for cDNA detection. The other 10 μL of the reaction mixture was purified using a commercial RNA purification kit (D7011, Zymo Research; Irvine, CA) and the product cDNA was quantified using Qubit.
(§2) SSO in vivo translation. A 2 mL overnight culture of YZ3+pGEX-MbPylRS TetR cells in 2×YT (Y2377, Sigma Aldrich) supplemented with 50 mM potassium phosphate (CAS 7778-77-0, Sigma Aldrich), 5 μg/mL chloramphenicol (CAS 56-75-7, Sigma Aldrich) and 100 μg/mL carbenicillin (C1613, Sigma Aldrich) (herein afterward referred to in this section as “media”) was diluted to an OD600 of 0.03 in the same media, and grown to an OD600 of 0.3 to 0.4. The culture was rapidly cooled in an ice water bath for 5 min with shaking, and then pelleted at 3,200×g for 10 min. Cells were next washed twice with one culture volume of pre-chilled autoclaved Milli-Q H2O. Cells were then resuspended in additional chilled H2O, to an OD600 of 50-60. For each sample tested, 50 μL of the resulting electrocompetent cells were combined with 0.5 ng of Golden Gate assembled plasmid containing the UBP embedded within the sfGFP and tRNA^Pyl genes and then transferred to a pre-chilled electroporation cuvette (0.2 cm gap). Cells were electroporated (Gene Pulser II; Bio-Rad) according to the manufacturer's instructions for bacteria ([…], 2.5 μF, and 200Ω resistor), then immediately diluted with 950 μL of pre-warmed media. 10 μL of this dilution was then diluted with pre-warmed media to a final volume of 50 μL, supplemented with […] and 10 μM dTPT3TP. The transformation was allowed to recover at 37° C. for 1 h. The recovery culture was plated on solid media supplemented with 50 μg/mL zeocin (R25001, ThermoFisher), 150 μM dNaMTP, 10 μM dTPT3TP, and 2% w/v agar, then allowed to grow at 37° C. overnight.
(§3) Single colonies were isolated and used to inoculate 300 μL liquid media supplemented with 50 μg/mL zeocin (herein afterward referred to in this section as “growth media”) and provided 150 μM dNaMTP, and 10 μM dTPT3TP, then monitored for cell growth via OD600 using an Envision 2103 Multilabel Plate Reader (Perkin Elmer) with a 590/20 nm filter. Cells were collected at an OD600 of ˜0.7, and then an aliquot (100 μL) was subjected to miniprep. Isolated plasmids were subjected to biotin shift assay to determine UBP retention. […] At an OD600 of cultures were supplemented with 250 μM NaMTP and 30 μM TPT3TP unless stated otherwise, as well as 10 mM of the ncAA N6-(2-azidoethoxy)-carbonyl-L-lysine (AzK). The culture was then grown for and additional 20 min before adding IPTG (CAS 367-93-1, Sigma Aldrich) to a concentration of 1 mM and grown for 1 h to induce the transcription of the T7 RNA polymerase, the tRNA^Pyl, and the PylRS. […]

In series [2] the test system is SuperScript III reverse transcriptase. Particulars: 10 ng RNA per reaction, replicate 1, unnatural dNTP supplied, 55 C.
The test system of series [3] is E. coli SSO. Kind of series: T-RT retention of M. mazei tRNA extracted from SSO in vivo translation experiments. Format: cell-based. Also on record: unit of the concentration uncertain. Particulars: for T-RT retention: tRNA(AYC), n = 3. On the procedure: as §1, §2, §3

On to `COc1cc2ccccc2cc1[C@@H]1O[C@H](COP(=O)(O)OP(=O)(O)OP(=O)(O)O)[C@@H](O)[C@H]1O` [NaMTP], for which, in series [1] (TPT3TP held constant at 250 µM, until NaMTP dropped to less than 50 μM), the “retention of NaM in the mRNA as NaMTP concentration was decreased” value was “remained high”. The T-RT retention in series [1] (NaMTP concentration 12.5 µM) is reported as 0.70; in series [1] (NaMTP concentration 25 µM) it was 0.81; in series [1] (NaMTP concentration 50 µM) it was 0.88; in series [1] (NaMTP concentration 125 µM), 0.94; in series [1] (NaMTP concentration 250 µM) it was 0.93.

Regarding M. mazei tRNA with NaM anticodon, the activity (full-length product ratio) in series [2] (NaM ribonucleotide at second nucleotide of anticodon, 0.8789 at 500 ng) amounted to 0.973.

As for `O=P(O)(O)OP(=O)(O)OP(=O)(O)OC[C@H]1O[C@@H](n2ccc3ccsc3c2=S)[C@H](O)[C@@H]1O` [TPT3TP], in series [3] (NaMTP held constant at 250 (unit uncertain), even at the lowest concentration examined (10 μM)), the “retention of TPT3 in the tRNA as TPT3TP concentration was varied” value is given as “remained high”. For the same compound, the T-RT retention in series [3] (TPT3TP concentration 12.5 (unit uncertain)) is reported as 0.95; in series [3] (TPT3TP concentration 25 (unit uncertain)), 0.97; in series [3] (TPT3TP concentration 50 (unit uncertain)), 0.98; in series [3] (TPT3TP concentration 125 (unit uncertain)), 0.95; in series [3] (TPT3TP concentration 250 (unit uncertain)), 0.94.

As to M. mazei tRNA with TPT3 anticodon, the activity (full-length product ratio) in series [2] (TPT3 ribonucleotide at second nucleotide of anticodon, 0.4423 at 500 ng) worked out at 0.917.

Values taken from patent US20230392140A1, “REVERSE TRANSCRIPTION OF POLYNUCLEOTIDES COMPRISING UNNATURAL NUCLEOTIDES” (Synthorx, Inc., priority 2020, published 2023).
